Laboratory results from patent US10829501B2 (BRISTOL-MYERS SQUIBB COMPANY, priority 2016, dated 2020).
Structures can show the parent of a compound that is named as a salt.

Biological target: ROCK2 (Homo sapiens, UniProt O75116)
Assay: ROCK2 kinase inhibition assay (LABCHIP 3000 Reader, FITC peptide substrate);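 further: rho kinase reaction read by separating phosphorylated from unphosphorylated peptide on chip, with inhibition of kinase activity computed per concentration across a dose-response series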

ROCK2, sequence (O75116 whole entry, species assumed): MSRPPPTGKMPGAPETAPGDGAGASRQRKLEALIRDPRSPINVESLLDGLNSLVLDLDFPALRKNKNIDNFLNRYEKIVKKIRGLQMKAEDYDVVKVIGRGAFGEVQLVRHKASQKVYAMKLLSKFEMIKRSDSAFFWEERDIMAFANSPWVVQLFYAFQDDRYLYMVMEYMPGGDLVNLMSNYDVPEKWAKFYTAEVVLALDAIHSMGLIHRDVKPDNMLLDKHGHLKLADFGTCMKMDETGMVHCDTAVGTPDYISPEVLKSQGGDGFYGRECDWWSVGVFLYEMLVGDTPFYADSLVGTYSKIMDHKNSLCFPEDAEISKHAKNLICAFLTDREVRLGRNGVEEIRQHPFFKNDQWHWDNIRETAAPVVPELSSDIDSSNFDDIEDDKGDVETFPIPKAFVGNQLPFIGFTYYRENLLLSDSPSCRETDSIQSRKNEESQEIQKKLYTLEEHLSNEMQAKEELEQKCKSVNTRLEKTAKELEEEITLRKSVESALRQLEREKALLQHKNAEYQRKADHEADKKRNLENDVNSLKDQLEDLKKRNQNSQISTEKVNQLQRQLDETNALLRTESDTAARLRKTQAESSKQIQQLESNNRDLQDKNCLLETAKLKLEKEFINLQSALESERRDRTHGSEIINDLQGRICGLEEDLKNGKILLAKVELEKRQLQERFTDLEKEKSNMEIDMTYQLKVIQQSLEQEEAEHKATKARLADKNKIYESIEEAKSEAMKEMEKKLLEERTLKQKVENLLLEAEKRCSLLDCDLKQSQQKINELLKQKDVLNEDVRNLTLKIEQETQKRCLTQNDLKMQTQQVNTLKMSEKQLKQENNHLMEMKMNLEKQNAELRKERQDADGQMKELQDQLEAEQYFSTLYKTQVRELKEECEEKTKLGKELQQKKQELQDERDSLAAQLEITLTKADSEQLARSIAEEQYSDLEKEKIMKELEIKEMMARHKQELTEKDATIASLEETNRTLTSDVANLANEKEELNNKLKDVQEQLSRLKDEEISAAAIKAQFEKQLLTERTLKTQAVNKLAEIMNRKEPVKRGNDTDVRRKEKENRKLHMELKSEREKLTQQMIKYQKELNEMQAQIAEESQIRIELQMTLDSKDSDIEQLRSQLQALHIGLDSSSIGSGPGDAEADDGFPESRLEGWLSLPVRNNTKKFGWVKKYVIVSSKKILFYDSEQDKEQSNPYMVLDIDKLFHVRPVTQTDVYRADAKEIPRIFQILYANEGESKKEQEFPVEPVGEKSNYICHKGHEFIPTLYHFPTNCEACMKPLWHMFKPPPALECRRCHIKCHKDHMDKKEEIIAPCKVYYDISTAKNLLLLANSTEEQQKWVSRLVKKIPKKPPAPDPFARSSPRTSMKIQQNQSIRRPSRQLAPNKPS

SMILES	IC50
[2H]C([2H])([2H])n1nc2cc(F)ccc2c1C(=O)N[C@H]1CC2(C1)C[C@H](Oc1ncccc1C(N)=O)C2 (stereo partly drawn) [Example 176, 6-fluoro-2-(^2H3)methyl-N-[(aR)-6-[(3-carbamoylpyridin-2-yl)oxy]spiro[3.3]heptan-2-yl]-2H-indazole-3-carboxamide, trifluoroacetate]	250 to 2500 nM
N#Cc1cc(C(=O)N[C@H]2CC3(C2)C[C@H](Oc2ncccc2C(N)=O)C3)cc(C2CC2)c1 (stereo partly drawn) [Example 183, 2-(((aR)-6-(3-cyano-5-cyclopropylbenzamido)spiro[3.3]heptan-2-yl)oxy) nicotinamide, trifluoroacetate]	5 to 50 nM
Cn1cc(-c2cc(C#N)cc(C(=O)N[C@H]3CC4(C3)C[C@H](Oc3ncccc3C(N)=O)C4)c2)c(C(F)(F)F)n1 (stereo partly drawn) [Example 184, 2-(((aR)-6-(3-cyano-5-(1-methyl-3-(trifluoromethyl)-1H-pyrazol-4-yl)benzamido)spiro[3.3]heptan-2-yl)oxy)nicotinamide, trifluoroacetate]	5 to 50 nM
Cc1nc(-c2ccc(C(F)(F)F)cc2)sc1-c1cc(C#N)cc(C(=O)N[C@H]2CC3(C2)C[C@H](Oc2ncccc2C(N)=O)C3)c1 (stereo partly drawn) [Example 188, 2-((aR)-6-(3-cyano-5-(4-methyl-2-(4-(trifluoromethyl)phenyl)thiazol-5-yl)benzamido)spiro[3.3]heptan-2-yl)oxy)nicotinamide, trifluoroacetate]	250 to 2500 nM
Cc1noc(C)c1-c1cc(C#N)cc(C(=O)N[C@H]2CC3(C2)C[C@H](Oc2ncccc2C(N)=O)C3)c1 (stereo partly drawn) [Example 190, 2-((aR)-6-(3-cyano-5-(3,5-dimethylisoxazol-4-yl)benzamido)spiro[3.3]heptan-2-yl)oxy)nicotinamide, trifluoroacetate]	5 to 50 nM
N#Cc1cc(C(=O)N[C@H]2CC3(C2)C[C@H](Oc2ncccc2C(N)=O)C3)cc(-c2ccc(C#N)nc2)c1 (stereo partly drawn) [Example 191, 2-(((aR)-6-(3-cyano-5-(6-cyanopyridin-3-yl)benzamido)spiro[3.3]heptan-2-yl)oxy)nicotinamide, trifluoroacetate]	5 to 50 nM
Cn1ccc(-c2cc(C#N)cc(C(=O)N[C@H]3CC4(C3)C[C@H](Oc3ncccc3C(N)=O)C4)c2)cc1=O (stereo partly drawn) [Example 192, 2-(((aR)-6-(3-cyano-5-(1-methyl-2-oxo-1,2-dihydropyridin-4-yl)benzamido)spiro[3.3]heptan-2-yl)oxy)nicotinamide, trifluoroacetate]	5 to 50 nM
N#Cc1cc(C(=O)N[C@H]2CC3(C2)C[C@H](Oc2ncccc2C(N)=O)C3)cc(-c2c[nH]nc2C(F)(F)F)c1 (stereo partly drawn) [Example 193, 2-(((aR)-6-(3-cyano-5-(3-(trifluoromethyl)-1H-pyrazol-4-yl)benzamido)spiro[3.3]heptan-2-yl)oxy)nicotinamide, trifluoroacetate]	5 to 50 nM
Cn1cccc(-c2cc(C#N)cc(C(=O)N[C@H]3CC4(C3)C[C@H](Oc3ncccc3C(N)=O)C4)c2)c1=O (stereo partly drawn) [Example 194, 2-(((aR)-6-(3-cyano-5-(1-methyl-2-oxo-1,2-dihydropyridin-3-yl)benzamido)spiro[3.3]heptan-2-yl)oxy)nicotinamide, trifluoroacetate]	5 to 50 nM
Cn1nccc1-c1cc(C#N)cc(C(=O)N[C@H]2CC3(C2)C[C@H](Oc2ncccc2C(N)=O)C3)c1 (stereo partly drawn) [Example 197, 2-(((aR)-6-(3-cyano-5-(1-methyl-1H-pyrazol-5-yl)benzamido)spiro[3.3]heptan-2-yl)oxy)nicotinamide]	5 to 50 nM
[H][C@]1(Oc2ncccc2C(N)=O)C[C@@]2(C[C@H](NC(=O)c3cc(C#N)cc(-c4nc5c(s4)CNCC5)c3)C2)C1 (stereo partly drawn) [Example 199, 2-(((aR)-6-(3-cyano-5-(4,5,6,7-tetrahydrothiazolo[5,4-c]pyridin-2-yl)benzamido)spiro[3.3]heptan-2-yl)oxy)nicotinamide, 2TFA]	5 to 50 nM
CN1CCc2nc(-c3cc(C#N)cc(C(=O)N[C@H]4CC5(C4)C[C@H](Oc4ncccc4C(N)=O)C5)c3)sc2C1 (stereo partly drawn) [Example 200, 2-(((aR)-6-(3-cyano-5-(5-methyl-4,5,6,7-tetrahydrothiazolo[5,4-c]pyridin-2-yl)benzamido)spiro[3.3]heptan-2-yl)oxy)nicotinamide, bis-trifluoroacetate]	5 to 50 nM
Cc1nc(-c2cc(C#N)cc(C(=O)N[C@H]3CC4(C3)C[C@H](Oc3ncccc3C(N)=O)C4)c2)cs1 (stereo partly drawn) [Example 203, 2-(((aR)-6-(3-cyano-5-(2-methylthiazol-4-yl)benzamido)spiro[3.3]heptan-2-yl)oxy)nicotinamide, trifluoroacetate]	5 to 50 nM
COc1cccc(C(N)=O)c1OC1CC2(CC(NC(=O)c3cnn4c(C5CC5)c(OCC(C)(C)O)ccc34)C2)C1 (centres unmarked) [Example 208, N-(6-(2-carbamoyl-6-methoxyphenoxy)spiro[3.3]heptan-2-yl)-7-cyclopropyl-6-(2-hydroxy-2-methylpropoxy)pyrazolo[1,5-a]pyridine-3-carboxamide]	250 to 2500 nM
COc1cccc(C(N)=O)c1OC1CC2(CC(NC(=O)c3cnn4cc(OCC(C)(C)O)ccc34)C2)C1 (centres unmarked) [Example 209, N-(6-(2-carbamoyl-6-methoxyphenoxy)spiro[3.3]heptan-2-yl)-6-(2-hydroxy-2-methylpropoxy)pyrazolo[1,5-a]pyridine-3-carboxamide]	250 to 2500 nM
COc1ccc(C(N)=O)c(OC2CC3(CC(NC(=O)c4cnn5cc(OCC(C)(C)O)ccc45)C3)C2)c1 (centres unmarked) [Example 210, N-(6-(2-carbamoyl-5-methoxyphenoxy)spiro[3.3]heptan-2-yl)-6-(2-hydroxy-2-methylpropoxy)pyrazolo[1,5-a]pyridine-3-carboxamide]	5 to 50 nM

Next, values leading:

IC50	SMILES
< 5 nM	NC(=O)c1cccnc1O[C@H]1CC2(C[C@H](NC(=O)c3nn(CC(F)F)c4cc(F)ccc34)C2)C1 (stereo partly drawn) [Example 175, N-((aR)-6-((3-carbamoylpyridin-2-yl)oxy)spiro[3.3]heptan-2-yl)-1-(2,2-difluoroethyl)-6-fluoro-1H-indazole-3-carboxamide, trifluoroacetate]
5 to 50 nM	COc1cccc(-c2ccc3c(C(=O)N[C@H]4CC5(C4)C[C@H](Oc4ncccc4C(N)=O)C5)nn(C(F)F)c3c2)c1 (stereo partly drawn) [Example 177, N-((aR)-6-((3-carbamoylpyridin-2-yl)oxy)spiro[3.3]heptan-2-yl)-1-(difluoromethyl)-6-(3-methoxyphenyl)-1H-indazole-3-carboxamide, trifluoroacetate]
5 to 50 nM	NC(=O)c1cccnc1OC1CC2(CC(NC(=O)c3nnc4cc(N5CCOCC5)ccn34)C2)C1 [Example 179, N-((aR)-6-((3-carbamoylpyridin-2-yl)oxy)spiro[3.3]heptan-2-yl)-7-morpholino-[1,2,4] triazolo[4,3-a]pyridine-3-carboxamide]
< 5 nM	[H][C@]1(Oc2ncccc2C(N)=O)C[C@@]2(C[C@H](NC(=O)c3cc(C#N)cc(-c4cnc(C)s4)c3)C2)C1 (stereo partly drawn) [Example 180, 2-(((aR)-6-(3-cyano-5-(2-methylthiazol-5-yl)benzamido)spiro[3.3]heptan-2-yl)oxy)nicotinamide, TFA]
< 5 nM	[2H]C([2H])([2H])n1cc(-c2cc(C#N)cc(C(=O)N[C@H]3CC4(C3)C[C@H](Oc3ncccc3C(N)=O)C4)c2)cn1 (stereo partly drawn) [Example 181, 2-(((aR)-6-(3-cyano-5-(1-(methyl-d3)-1H-pyrazol-4-yl)benzamido)spiro [3.3]heptan-2-yl)oxy)nicotinamide, trifluoroacetate]
< 5 nM	Cc1nn(C)cc1-c1cc(C#N)cc(C(=O)N[C@H]2CC3(C2)C[C@H](Oc2ncccc2C(N)=O)C3)c1 (stereo partly drawn) [Example 182, 2-(((aR)-6-(3-cyano-5-(1,3-dimethyl-1H-pyrazol-4-yl)benzamido)spiro [3.3]heptan-2-yl)oxy)nicotinamide, trifluoroacetate]
< 5 nM	Cc1c(-c2cc(C#N)cc(C(=O)N[C@H]3CC4(C3)C[C@H](Oc3ncccc3C(N)=O)C4)c2)cnn1C (stereo partly drawn) [Example 185, 2-(((aR)-6-(3-cyano-5-(1,5-dimethyl-1H-pyrazol-4-yl)benzamido)spiro[3.3]heptan-2-yl)oxy)nicotinamide, trifluoroacetate]
< 5 nM	Cc1nc2cc(-c3cc(C#N)cc(C(=O)N[C@H]4CC5(C4)C[C@H](Oc4ncccc4C(N)=O)C5)c3)ccc2s1 (stereo partly drawn) [Example 186, 2-(((aR)-6-(3-cyano-5-(2-methylbenzo[d]thiazol-5-yl)benzamido)spiro[3.3]heptan-2-yl)oxy)nicotinamide, trifluoroacetate]
< 5 nM	CC(C)Cn1cc(-c2cc(C#N)cc(C(=O)N[C@H]3CC4(C3)C[C@H](Oc3ncccc3C(N)=O)C4)c2)cn1 (stereo partly drawn) [Example 187, 2-((aR)-6-(3-cyano-5-(1-isobutyl-1H-pyrazol-4-yl)benzamido)spiro [3.3]heptan-2-yl)oxy)nicotinamide, trifluoroacetate]
< 5 nM	N#Cc1cc(C(=O)N[C@H]2CC3(C2)C[C@H](Oc2ncccc2C(N)=O)C3)cc(-c2ccc3c(c2)CCC(=O)N3)c1 (stereo partly drawn) [Example 189, 2-((aR)-6-(3-cyano-5-(2-oxo-1,2,3,4-tetrahydroquinolin-6-yl)benzamido)spiro[3.3]heptan-2-yl)oxy)nicotinamide, trifluoroacetate]
< 5 nM	CS(=O)(=O)c1ccccc1-c1cc(C#N)cc(C(=O)N[C@H]2CC3(C2)C[C@H](Oc2ncccc2C(N)=O)C3)c1 (stereo partly drawn) [Example 196, 2-(((aR)-6-(5-cyano-2′-(methylsulfonyl)-[1,1′-biphenyl]-3-ylcarboxamido)spiro[3.3]heptan-2-yl)oxy)nicotinamide]
< 5 nM	N#Cc1cc(C(=O)N[C@H]2CC3(C2)C[C@H](Oc2ncccc2C(N)=O)C3)cc(-c2cnn(C(F)F)c2)c1 (stereo partly drawn) [Example 198, 2-(((aR)-6-(3-cyano-5-(1-(difluoromethyl)-1H-pyrazol-4-yl)benzamido)spiro[3.3]heptan-2-yl)oxy)nicotinamide]
< 5 nM	COc1ccc(C(N)=O)c(OC2CC3(CC(NC(=O)c4cnn5c(C6CC6)c(OCC(C)(C)O)ccc45)C3)C2)c1 (centres unmarked) [Example 211, N-(6-(2-carbamoyl-5-methoxyphenoxy)spiro[3.3]heptan-2-yl)-7-cyclopropyl-6-(2-hydroxy-2-methylpropoxy)pyrazolo[1,5-a]pyridine-3-carboxamide]
